In US20240261302A1, “METHODS OF TREATING NEURODEGENERATIVE DISEASES OR CONDITIONS” (FloraScience Inc., priority 2023, published 2024):
“Also recorded” adds a separate entry of the source. Read-outs that look alike come from different tables or passages of the source.

Assays:
[1] = Iron (Fe^2+) Binding Assay (ferrozine method); details: 5 to 10 μM, compared to deferiprone 5 μM
Method: Iron (Fe^2+) Binding Assay. Ferrous iron binding was measured by the ferrozine method. Briefly, test samples at the desired concentrations were mixed with 5 μM ferrous sulfate (FeSO4) in 100 μL of 50 mM HEPES, pH 7.5 in a 96-well plate. After 2 min, 50 μL of 5 mM ferrozine was added and the optical absorbance at 562 nm was measured on a SpectraMax M5 microplate reader. Each sample was analyzed in eight wells per independent experiment (n=8). Iron binding capacities were presented as the percentage of the vehicle controls without (100%) or with iron (0%).

HT22 cells [2] = experiment: Ferroptosis Assay (RSL3-induced cell death, MTT); format: cell-based, mouse; details: for EC50: Mus musculus, HT-22, MTT
Method: Ferroptosis Assay: HT22 cells were seeded at 3,000 cells/well in 96-well tissue culture plates in DMEM plus 10% FBS and 1% antibiotics. After 24 hr of plating, the cells were pretreated with different concentrations of test compounds or a vehicle control for 1 hr followed by coincubation with 50 nM RSL3 to induce the cell death cascade. After 16 hr of treatment, cell viability was measured by the MTT assay. Optical absorbance was measured at 570 nm on a SpectraMax M5 microplate reader. Samples were analyzed in eight to sixteen wells per independent experiment (n=8-16). Results were presented as the percentage of the controls with vehicle alone.

[3] = Trolox Equivalent Antioxidant Capacity (TEAC) Assay; format: biochemical; details: 5 to 10 μM, compared to Trolox at 5 μM
Method: Trolox Equivalent Antioxidant Capacity (TEAC) Assay. Briefly, an aqueous 2,2′-azino-bis(3-ethylbenzothiazoline-6-sulfonic acid) (ABTS) solution (7 mM) was treated with potassium persulfate (K2S2O8) (2.5 mM) overnight at room temperature in the dark and diluted in water to an OD value of 0.7 at 734 nm. 190 μL of the diluted ABTS solution was added to a 96-well plate containing 10 μL of test compounds or Trolox at the desired concentrations. The plate was vigorously mixed and incubated for 4 min at room temperature in the dark. Optical absorbance was measured at 734 nm on a SpectraMax M5 microplate reader. The decrease in absorbance of the ABTS radical cation indicates the presence of antioxidants. Samples were analyzed in eight wells per independent experiment (n=8). The TEAC values of each sample were presented as the percentage of the standard Trolox at 5 μM.

primary cortical neurons = experiment: Neuroprotection against RSL3 in primary neurons; format: cell-based, rat; details: CBN 10 μM, data not shown
Method: Embryonic Cortical Neuron Extraction. Primary cortical neurons were prepared from embryonic day 17 Sprague-Dawley rat pups and used at 7 days in vitro as previously described (7 DIV). Neurons were dissociated from the cortex and maintained in Neurobasal-A medium (Invitrogen, Cat #10888022, Carlsbad, CA) supplemented with B-27 Supplement (Invitrogen, Cat #17504044, Carlsbad, CA), 2 mM glutamine, and 1% antibiotics including penicillin and streptomycin. Cell cultures were incubated at 37° C. in a fully humidified atmosphere containing 10% CO2. All animal procedures were approved by the Salk Institute's Institutional Animal Care and Use Committee.

[4] = cited from earlier work
HT22 mt-GFP cells = experiment: Mitochondrial Network Morphology Analysis; format: cell-based, mouse
Method: Mitochondrial Network Morphology Analysis. HT22 mt-GFP cells were seeded at 20,000 cells/well on glass coverslips in 24-well plates in DMEM supplemented with 10% FBS and 1% antibiotics. The following day, the cells were treated with the test compounds for the desired period of time. After rinsing with PBS, the cells on glass coverslips were fixed with 4% paraformaldehyde (pH 7.4) for 10 min at 37° C. After additional PBS rinses, the coverslips were mounted onto glass microslides with Fluoro-Gel (Electron Microscopy Sciences, Cat #17985-10). Z-stack images of fixed cells were acquired on a Zeiss LSM 880 rear port laser scanning confocal and Airyscan FAST microscope with ZEN Black software to trace and render cells in 3D. The mitochondrial network morphology parameters (n=20-25 cells/condition) were scored and analyzed with the MiNA module of ImageJ/Fiji software.

CB1/CB2 receptors = details: cited from earlier work
HT22 mt-GFP WT cells = experiment: Cell viability after RSL3 with/without FCCP (CyQUANT DNA-based assay, fluorescence microscopy), mt-GFP WT cells; set-up: species or system mouse
BV2 microglia = experiment: Mitochondrial Membrane Potential Assay (JC-10) in BV2 cells; format: cell-based; details: 4 hr
Method: BV2 microglial cells were cultured in low glucose DMEM supplemented with GlutaMAX (Invitrogen, Cat #10567014, Carlsbad, CA), 1 mM sodium pyruvate, 10% FBS, and 1% antibiotics including penicillin and streptomycin. Cell cultures were incubated at 37° C. in a fully humidified atmosphere containing 10% CO2.
(§1) Mitochondrial Membrane Potential Assay. Cells seeded at 5,000 cells/well onto 96-well black walled plates were treated with test compounds at the desired concentrations under the culture condition described above. The mitochondrial uncoupler FCCP at 2 μM was used as a reference control. After the desired treatments for 4 hr, the cells were subjected to a JC-10 mitochondrial membrane potential assay according to the manufacturer's instruction. Fluorescence intensities (Ex/Em=490/525 nm, and Ex/Em=540/590 nm) of each well were monitored on a SpectraMax M5 microplate reader. The ratio of fluorescence intensity (590/525 nm) was used to determine the mitochondrial membrane potential (ΔΨm). Decreasing ratios indicate mitochondrial membrane depolarization. Samples were analyzed in eight to sixteen wells per independent experiment (n=8-16). Results were verified by live-cell imaging under a fluorescence microscope.

HT22 cells [5] = experiment: Mitochondrial Membrane Potential Assay (JC-10) in HT22 cells; format: cell-based, mouse; details: 5 μM, 4 hr, p<0.0001
Method: as §1

SMILES: CCCCCc1cc(O)c2c(c1)OC(C)(C)c1ccc(C)cc1-2 [CBN, 6,6,9-Trimethyl-3-pentyl-benzo[c]chromen-1-ol]
- Fe^2+ binding [1]: did not show significant Fe^2+ binding
- RSL3-induced morphological changes (HT22 cells [2]; 5 μM pretreatment 1 hr, then 50 nM RSL3 16 hr): effectively prevented
- neuroprotection against 50 nM RSL3 (HT22 cells [2]; HT22 cells, CBN 10 μM, data not shown): ~100%
- EC50 (HT22 cells [2]; HT22 cells, 1 hr pretreatment, 50 nM RSL3, 16 hr, read-out: Observed EC50 RSL3): 0.39 µM
- EC50 (HT22 cells [2]; HT22 cells, 16 hr, read-out: EC50 against oxytosis/ferroptosis induced by 50 nM RSL3 (FIG. 2H)): 0.69 µM
- capacity to scavenge total free radicals (TEAC) [3]: relatively weak capacity
- neuroprotection against 50 nM RSL3 (primary cortical neurons): ~100%
- bioavailability ([4]; after oral or inhaled administration): 10 to 40%
- brain penetrance ([4]; animals and humans): good brain penetrance
- metabolic stability compared to THC ([4]; human, in vivo): metabolically more stable
- RSL3-induced mitochondrial fragmentation (HT22 mt-GFP cells; 50 nM RSL3): prevent the mitochondrial fragmentation
- individual and summed branch lengths of mitochondria (HT22 mt-GFP cells; CBN alone): significantly increased
- mitochondrial footprints and network branches (HT22 mt-GFP cells; CBN alone): no apparent effects
- activity at CB1/CB2 receptors (CB1/CB2 receptors): weak agonist
- binding affinities compared to THC, fold lower (CB1/CB2 receptors; tissue- or cell-type specific): 10 to 100 fold
- protection against RSL3-induced cell death, no FCCP pretreatment (HT22 mt-GFP WT cells; 16 hr): strong and equivalent protection
- protection against RSL3 after FCCP pretreatment (HT22 mt-GFP WT cells; FCCP 5 μM 24 hr, then 16 hr): protected; also recorded: protective
- cell numbers after FCCP pretreatment, co-treatment with compound (HT22 mt-GFP WT cells; FCCP 24 hr, CBN additional 16 hr): did not further change the cell numbers
- decrease of ΔΨm (BV2 microglia): also observed
- decrease of mitochondrial membrane potential (ΔΨm) (HT22 cells [5]): approximately 17%
